Measurements published in BindingDB's records for doi:10.1021/jm200004e (University of Louisiana At Monroe, 2011).
*1 amine or outer side, *2 acyl side, *3 side chain or, on linkers, in order; H or OH if unused. Where a SMILES comes first, the peptide text is derived from it. [ ]: non-standard residue; d: D form. X1 = O=C(CCc1cccc2c1oc1c(CCN[*:1])cccc12)[*:2]

Experiment: Inhibition of CD2 assessed as inhibition of CD2-CD58 protein-protein interaction mediated cell adhesion between CD58 expressing sheep red blood cells and CD2 expressing human Jurkat cells by E-rosettes assay

CC[C@H](C)[C@@H]1NC(=O)[C@H](Cc2ccc(O)cc2)NC(=O)[C@H](CC(=O)O)NC(=O)CCc2cccc3c2Oc2c(cccc2-3)CCNC(=O)[C@H](CC(=O)O)NC(=O)[C@H](CC(=O)O)NC(=O)[C@H](CCCCN)NC1=O (cyclo(DD[X1]DYIK))
IC50: 25.7 nM
